Our source for the IC50 values is ChEMBL document CHEMBL3886216, “Triazine carboxamides as sodium channel blockers” (2015).

The test concerns the target Sodium channel protein type 9 subunit alpha (Homo sapiens, UniProt Q15858). Nature of the test: FLIPR Assay: […] Sodium Dye Assay with KCl: Cells were prepared by plating the recombinant HEK293 cells or other host cells expressing either recombinant or non-recombinant, native, Nav1.7 alpha subunit, alone or in combination with various beta and gamma subunits at a density of ~40,000 cells/well into a 96-well black, clear-bottom, PDL-coated plate. The assay can be adapted to 384-well or 1,536-well format, if desired, using proportionately fewer cells and less media. The plate was then incubated in growth media, with or without selective antibiotic, overnight at 37 C. at 5% CO2, 95% humidity, in preparation for the assay. For counter-screens of other voltage-gated sodium channels, the procedure was very similar, though optimal densities of cells, media and subsequent assay components can be fine-tuned for the particular cell line or isoform. […] Membrane Potential Assay with KCl: Cells are prepared by plating the recombinant HEK293 cells. It counts as cell-based. (In general: Counterscreens check selectivity or assay interference.)

The structures appear in SMILES notation.

In general, IC50 refers to the concentration needed to halve the response being measured.

Chain of Sodium channel protein type 9 subunit alpha (Q15858 whole entry): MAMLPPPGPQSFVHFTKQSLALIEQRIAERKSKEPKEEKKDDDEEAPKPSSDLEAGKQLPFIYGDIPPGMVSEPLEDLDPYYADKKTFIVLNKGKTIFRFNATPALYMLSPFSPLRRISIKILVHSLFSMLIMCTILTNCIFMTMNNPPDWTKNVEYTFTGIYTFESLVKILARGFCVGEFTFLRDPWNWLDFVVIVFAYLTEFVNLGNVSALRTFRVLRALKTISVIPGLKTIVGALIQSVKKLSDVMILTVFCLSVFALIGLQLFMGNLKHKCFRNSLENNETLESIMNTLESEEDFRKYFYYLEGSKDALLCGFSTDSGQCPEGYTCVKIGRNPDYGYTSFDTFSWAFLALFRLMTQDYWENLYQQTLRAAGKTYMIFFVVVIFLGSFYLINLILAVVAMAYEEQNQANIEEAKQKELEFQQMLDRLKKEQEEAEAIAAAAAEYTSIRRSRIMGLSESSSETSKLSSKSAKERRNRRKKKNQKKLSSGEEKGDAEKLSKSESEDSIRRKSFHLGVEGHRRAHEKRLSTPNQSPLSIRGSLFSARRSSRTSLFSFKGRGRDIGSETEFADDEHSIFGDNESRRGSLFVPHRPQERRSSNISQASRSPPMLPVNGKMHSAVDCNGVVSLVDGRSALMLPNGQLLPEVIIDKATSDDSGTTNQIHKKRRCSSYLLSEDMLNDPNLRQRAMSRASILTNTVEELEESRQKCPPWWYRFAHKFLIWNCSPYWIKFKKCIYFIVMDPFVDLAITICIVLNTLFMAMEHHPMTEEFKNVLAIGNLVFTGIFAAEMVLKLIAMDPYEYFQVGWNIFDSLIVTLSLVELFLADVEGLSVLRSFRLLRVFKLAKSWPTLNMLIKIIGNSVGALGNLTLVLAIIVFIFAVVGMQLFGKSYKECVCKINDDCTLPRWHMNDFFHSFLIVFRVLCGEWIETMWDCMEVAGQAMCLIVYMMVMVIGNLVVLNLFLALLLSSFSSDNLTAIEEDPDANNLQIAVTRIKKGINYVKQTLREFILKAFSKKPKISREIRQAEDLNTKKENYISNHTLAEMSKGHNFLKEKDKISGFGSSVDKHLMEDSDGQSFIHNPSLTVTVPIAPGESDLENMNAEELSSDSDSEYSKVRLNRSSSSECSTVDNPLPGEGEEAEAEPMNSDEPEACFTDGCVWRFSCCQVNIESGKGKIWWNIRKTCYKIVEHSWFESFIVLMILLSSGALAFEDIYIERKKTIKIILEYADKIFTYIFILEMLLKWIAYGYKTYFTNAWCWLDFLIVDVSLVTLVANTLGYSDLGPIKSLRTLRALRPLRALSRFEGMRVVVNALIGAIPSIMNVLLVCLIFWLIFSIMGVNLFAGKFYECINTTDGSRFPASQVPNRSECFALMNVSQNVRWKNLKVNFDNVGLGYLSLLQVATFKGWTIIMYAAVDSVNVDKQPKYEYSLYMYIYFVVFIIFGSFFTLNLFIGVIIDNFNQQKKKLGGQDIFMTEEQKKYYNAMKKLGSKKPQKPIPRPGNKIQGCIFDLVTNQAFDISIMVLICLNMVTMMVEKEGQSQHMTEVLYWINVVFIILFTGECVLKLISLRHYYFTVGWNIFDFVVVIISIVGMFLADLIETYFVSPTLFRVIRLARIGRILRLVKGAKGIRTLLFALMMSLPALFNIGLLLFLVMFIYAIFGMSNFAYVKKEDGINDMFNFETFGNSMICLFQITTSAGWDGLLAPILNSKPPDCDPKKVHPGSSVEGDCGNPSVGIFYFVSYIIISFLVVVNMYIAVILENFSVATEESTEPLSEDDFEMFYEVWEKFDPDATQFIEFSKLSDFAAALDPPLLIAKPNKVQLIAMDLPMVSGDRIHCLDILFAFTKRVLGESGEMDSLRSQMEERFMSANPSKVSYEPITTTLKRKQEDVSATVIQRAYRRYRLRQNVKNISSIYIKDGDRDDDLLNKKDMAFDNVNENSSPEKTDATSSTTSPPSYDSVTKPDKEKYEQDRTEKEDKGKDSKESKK

With `N#Cc1nc(-c2ccc(Oc3ccc(OC(F)(F)F)cc3)cc2)nc(N2CCOCC2)n1`, the concentration for half-maximal inhibition (IC50) was greater than 20 µM.
Take `NC(=O)c1nc(N[C@H]2CCNC2=O)nc(-c2ccc(Oc3ccc(C(F)(F)F)cn3)cc2)n1`: the IC50 turned out to be 1.8 µM.
Regarding `N#Cc1nc(N[C@H]2CCNC2=O)nc(-c2ccc(Oc3ccc(C(F)(F)F)cn3)cc2)n1`, the IC50 is greater than 20 µM.
